Patent publication US6579873B2, “3 (5)-heteroaryl substituted pyrazoles as p38 kinase inhibitors” (Pharmacia Corporation, priority 1997, dated 2003)

Tests used:
[1] = target: T1, human p38 kinase alpha (Homo sapiens, UniProt Q16539); assay: p38 kinase in vitro assay, PHAS-I phosphorylation (32P-ATP); type: biochemical; details: p38α in vitro results based on PHAS-I assay procedure, read-out: P38α^1
T1 construct: The coding region of the human p38a cDNA was obtained by PCR-amplification from RNA; made in house; host or cells: E. coli DH10B
Protocol: The ability of compounds to inhibit human p38 kinase alpha was evaluated using two in vitro assay methods. In the first method, activated human p38 kinase alpha phosphorylates a biotinylated substrate, PHAS-I (phosphorylated heat and acid stable protein-insulin inducible), in the presence of gamma ^32P-ATP (^32P-ATP). PHAS-I was biotinylated prior to the assay and provides a means of capturing the substrate which is phosphorylated during the assay. p38 Kinase was activated by MKK6. Compounds were tested in 10 fold serial dilutions over the range of 100 μM to 0.001 μM using 1% DMSO. Each concentration of inhibitor was tested in triplicate.
All reactions were carried out in 96 well polypropylene plates. Each reaction well contained 25 mM HEPES pH 7.5, 10 mM magnesium acetate and 50 μM unlabeled ATP. Activation of p38 was required to achieve sufficient signal in the assay. Biotinylated PHAS-I was used at 1-2 μg per 50 μl reaction volume, with a final concentration of 1.5 μM. Activated human p38 kinase alpha was used at 1 μg per 50 μl reaction volume representing a final concentration of 0.3 μM. Gamma ^32P-ATP was used to follow the phosphorylation of PHAS-I. ^32P-ATP has a specific activity of 3000 Ci/mmol and was used at 1.2 μCi per 50 μl reaction volume. The reaction Proceeded either for one hour or overnight at 30° C.
Following incubation, 20 μl of reaction mixture was transferred to a high capacity streptavidin coated filter plate (SAM-streptavidin-matrix, Promega) prewetted with phosphate buffered saline. The transferred reaction mix was allowed to contact the streptavidin membrane of the Promega plate for 1-2 minutes. Following capture of biotinylated PHAS-I with ^32P incorporated, each well was washed to remove unincorporated ^32P-ATP three times with 2M NaCl, three washes of 2M NaCl with 1% phosphoric, three washes of distilled water and finally a single wash of 95% ethanol. Filter plates were air dried and 20 μl of scintillant was added. The plates were sealed and counted.

[2] = target: T1, human p38 kinase alpha; assay: p38 kinase in vitro assay, EGFRP phosphorylation (33P-ATP); type: biochemical; details: p38α in vitro results based on EGFRP assay procedure, read-out: p38α^2
Protocol: A second assay format was also employed that is based on p38 kinase alpha induced phosphorylation of EGFRP (epidermal growth factor receptor peptide, a 21 mer) in the presence of ^33P-ATP. Compounds were tested in 10 fold serial dilutions over the range of 100 μM to 0.001 μM in 1% DMSO. Each concentration of inhibitor was tested in triplicate. Compounds were evaluated in 50 μl reaction volumes in the presence of 25 mM Hepes pH 7.5, 10 mM magnesium acetate, 4% glycerol, 0.4% bovine serum albumin, 0.4 mM DTT, 50 μM unlabeled ATP, 25 μg EGFRP (200 μM), and 0.05 uCi gamma ^33P-ATP. Reactions were initiated by addition of 0.09 μg of activated, purified human GST-p38 kinase alpha. Activation was carried out using GST-MKK6 (5:1,p38:MKK6) for one hour at 30° C. in the presence of 50 μM ATP. Following incubation for 60 minutes at room temperature, the reaction was stopped by addition of 150 μl of AG 1×8 resin in 900 mM sodium formate buffer, pH 3.0 (1 volume resin to 2 volumes buffer). The mixture was mixed three times with pipetting and the resin was allowed to settle. A total of 50 μl of clarified solution head volume was transferred from the reaction wells to Microlite-2 plates. 150 μl of Microscint 40 was then added to each well of the Microlite plate, and the plate was sealed, mixed, and counted.

[3] = tested on: TNF production by U937 cells; assay: LPS stimulation of TNF production by U937 cells; type: cell-based; details: Homo sapiens, U-937, LPS-stimulated TNF-α release, differentiated U937 cells, 4 hour incubation
Protocol: U937 cells (ATCC) were propagated in RPMI 1640 containing 10% Fetal bovine serum, 100 IU/ml penicillin, 100 μg/ml streptomycin, and 2 mM glutamine (Gibco). Fifty million cells in 100 ml media were induced to terminal monocytic differentiation by 24 hour incubation with 20 ng/ml phorbol 12-myristate 13-acetate (Sigma). The cells were washed by centrifugation (200×g for 5 min) and resuspended in 100 ml fresh medium. After 24-48 hours, the cells were harvested, centrifuged, and resuspended in culture medium at 2 million cells/ml.
U937 cells (0.1 ml, 2 million/ml) were incubated with 0.1 ml compound (0.004-50 μM, final concentration) for 1 hour in 96 well microtiter plates. Compounds were prepared as 10 mM stock solutions in DMSO and diluted in culture medium to yield a final DMSO concentration of 0.1% in the cell assay. LPS (E. coli, 100 ng/ml final concentration) was then added at a volume of 0.02 ml. After 4 hour incubation at 37° C., the amount of TNF-α released in the culture medium was quantitated by ELISA. Inhibitory potency is expressed as IC50 (μM).

[4] = tested on: serum TNF; assay: Mouse model of LPS-induced TNF alpha production; type: in vivo, BALB/c female mice; details: percent inhibition of serum TNF, oral gavage 6 hours prior to LPS injection, mice
Protocol: TNF alpha was induced in 10-12 week old BALB/c female mice by tail vein injection with 100 ng lipopolysaccharide (from S. Typhosa) in 0.2 ml saline. One hour later mice were bled from the retroorbital sinus and TNF concentrations in serum from clotted blood were quantified by ELISA. Typically, peak levels of serum TNF ranged from 2-6 ng/ml one hour after LPS injection.
The compounds tested were administered to fasted mice by oral gavage as a suspension in 0.2 ml of 0.5% methylcellulose and 0.025% Tween 20 in water at 1 hour or 6 hours prior to LPS injection. The 1 hour protocol allowed evaluation of compound potency at Cmax plasma levels whereas the 6 hour protocol allowed estimation of compound duration of action. Efficacy was determined at each time point as percent inhibition of serum TNF levels relative to LPS injected mice that received vehicle only.

T1 sequence (Q16539 whole entry): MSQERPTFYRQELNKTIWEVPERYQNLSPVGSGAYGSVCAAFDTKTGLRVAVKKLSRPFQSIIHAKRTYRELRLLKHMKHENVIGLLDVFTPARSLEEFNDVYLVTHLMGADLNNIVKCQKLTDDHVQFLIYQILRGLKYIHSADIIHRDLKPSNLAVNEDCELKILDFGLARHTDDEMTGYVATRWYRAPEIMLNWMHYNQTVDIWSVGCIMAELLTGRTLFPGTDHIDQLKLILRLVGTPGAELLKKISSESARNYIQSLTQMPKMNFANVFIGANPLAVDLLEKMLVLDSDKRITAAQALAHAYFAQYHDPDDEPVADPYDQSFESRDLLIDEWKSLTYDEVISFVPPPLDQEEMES

IC50 [1] [µM]	IC50 [2] [µM]	IC50 [3] [µM]	melting point [°C]	Molecule	mLPS (6 h @ (30 mpk)) [4] [%]
0.86	–	–	–	4-[2-[4-(4-fluorophenyl)-3-(4-pyridinyl)-1H-pyrazol-1-yl]ethyl]morpholine and 4-[2-[4-(4-fluorophenyl)-5-(4-pyridinyl)-1H-pyrazol-1-yl]ethyl]morpholine [Example 13]	–
30	13.3	≥ 10	164 to 165	Cc1n[nH]c(-c2ccncc2)c1-c1ccccc1 [Example 1, 4-(3-methyl-4-phenyl-1H-pyrazol-5-yl)pyridine]	–
–	6.21	10.6	178 to 180	Nc1n[nH]c(-c2ccncc2)c1-c1ccc(F)cc1 [Example 2, 4-(4-fluorophenyl)-5-(4-pyridinyl)-1H-pyrazol-3-amine]	–
–	2.55	> 10	168 to 170	CS(=O)(=O)Nc1n[nH]c(-c2ccncc2)c1-c1ccc(F)cc1 [Example 3, N-[4 (4-fluorophenyl)-5-(4-pyridinyl)-1H-pyrazol-3-yl]methanesulfonamide]	–
–	0.23	4.7	194 to 195	CNS(=O)(=O)Nc1n[nH]c(-c2ccncc2)c1-c1ccc(F)cc1 [Example 4, N-[4-(4-fluorophenyl)-5-(4-pyridinyl)-1H-pyrazol-3-yl]-N′-methylsulfamide]	54
1.98	–	5.53	–	NC(=O)Nc1n[nH]c(-c2ccncc2)c1-c1ccc(F)cc1 [Example 5, [4-(4-fluorophenyl)-5-(4-pyridinyl)-1H-pyrazol-3-yl]urea]	–
–	5.48	≥ 10	257 to 258	Cn1nc(-c2ccncc2)c(-c2ccc(Cl)cc2)c1N [Example 7, 4-(4-chlorophenyl)-1-methyl-3-(4-pyridinyl)-1H-pyrazol-5-amine]	–
–	–	≥ 10	212 to 213	CNC(=O)Nc1n[nH]c(-c2ccncc2)c1-c1ccc(F)cc1 [Example 8, N-[4-(4-fluorophenyl)-5-(4-pyridinyl)-1H-pyrazol-3-yl]-N′-methylurea]	–
2.44	3.46	0.647	–	Fc1ccc(-c2cn[nH]c2-c2ccncc2)cc1 [Example 9, 4-[4-(4-fluorophenyl)-1H-pyrazol-3-yl]pyridine]	42
7.23	0.4	1.6	–	Cn1cc(-c2ccc(F)cc2)c(-c2ccncc2)n1 [Example 10, 4-[4-(4-fluorophenyl)-1-methyl-1H-pyrazol-3-yl]pyridine]	76
5.9	0.75	–	–	Clc1ccc(-c2c[nH]nc2-c2ccncc2)cc1 [Example 15, 4-[4-(4-chlorcophenyl)-1H-pyrazol-3-yl]pyridine]	32

Molecule	IC50 [1] [µM]	IC50 [2] [µM]	IC50 [3] [µM]	melting point [°C]	mLPS (6 h @ (30 mpk)) [4] [%]
4-(4-fluorophenyl)-3-(4-pyridinyl)-1H-pyrazole-1-ethanol and 4-(4-fluorophenyl)-5-(4-pyridinyl)-1H-pyrazole-1-ethanol [Example 11]	0.695	–	–	–	–
4-(4-fluorophenyl)-N,N-dimethyl-3-(4-pyridinyl)-1H-pyrazole-1-ethanamine and 4-(4fluorophenyl)-N,N-dimethyl-5-(4-pyridinyl)-1H-pyrazole-1-ethanamine [Example 12]	0.941	–	–	–	–
